Where “and” joins values, the source holds several entries; their conditions need not be identical. Identical values can stand only once.
Assays:
Rattus norvegicus [1] = conditions: repeat dose other; oral
Rattus norvegicus [2] = conditions: oral, gavage
Rattus norvegicus [3] = test system: Rattus norvegicus
Rattus norvegicus [4] = test system: Rattus norvegicus; remark: listed apart in the source
Rattus norvegicus [5] = conditions: oral
Rattus norvegicus [6] = conditions: oral; remark: listed apart in the source
Rattus norvegicus [7] = conditions: for LEL: uterotrophic, Active
Canidae = conditions: chronic; duration: 6 months; oral; diet; M/F; Dog Other; Organ weight changes (adrenal and kidney)
[8] = short-term, duration: 28 days, M, Sprague-Dawley, Clinical Observation: Spontaneous locomotion decrease, Respiratory rate decrease, Incomplete eyelid opening SalivationLacrimation Stool …
[9] = subchronic, M, increased liver-to-body weight ratio and hepatic microsomal enzyme induction
[10] = subchronic, M/F, hypoactivity and ataxia
[11] = subchronic, M/F, increased liver weight and centrilobular hypertrophy
[12] = reproduction developmental, M/F, reduced mean body weight
[13] = chronic, duration: 2 years, diet, M/F, increased kidney body weight ratio
[14] = reproduction developmental, M/F, degenerative cardiomyopathy
[15] = subchronic, duration: 90 days, diet, M/F, reduced hemoglobin concentration, lowered hematocrits, altered organ weight
[16] = subchronic, duration: 90 days, diet, M/F, reduced weight gain, food consumption increased relative liver weight
[17] = duration: 2 years, feed, M/F, Crl:CD(SD), reduced weight gain
[18] = short-term, duration: 20 days, M/F, rachitic bone

Question: For `Clc1cc2oc3cc(Cl)c(Cl)c(Cl)c3c2cc1Cl` [1,2,3,7,8-Pentachlorodibenzofuran], which LOAEL (Rattus norvegicus [1]) is on record?
Answer: 0.0016 mg/kg-day

Question: And the NOAEL (Rattus norvegicus [1])?
Answer: 0.00016 mg/kg-day

Question: `ClCC(Cl)CCl` [1,2,3-Trichloropropane] was tested. Which NOEL (Rattus norvegicus [2]; chronic, duration: 17 weeks, M/F, Fischer 344, Deaths + Body Weight Changes: decrease + Hematology: Hct decrease, RBC decrease, Hgb decrease + Blood Chemistry: Na decrease, Alb increase, …) did it give?
Answer: < 8 mg/kg-day

Question: And the NOAEL (Rattus norvegicus [2]; [8])?
Answer: < 15 mg/kg-day

Question: What about the NOEL (Rattus norvegicus [2]; [8]) of the same compound?
Answer: < 15 mg/kg-day

Question: What about the NOAEL (Rattus norvegicus [3]; short-term, duration: 11 days, inhalation, M/F, Fischer 344, respiratory) of the same compound?
Answer: 6.03 mg/m3

Question: And the NOAEL (Rattus norvegicus [4]; chronic, duration: 120 days, oral, Blood: Decreased hematocrit + Blood: Decreased hemoglobin + Erythrocytes: Decreased count + Kidney: Lesions + Liver: Lesions + Whole body: …)?
Answer: 8 mg/kg-day

Question: With `Brc1ccc(Br)c(Br)c1` [1,2,4-Tribromobenzene] as the compound, how does the LOAEL (Rattus norvegicus [5]; [9]) read?
Answer: 10 mg/kg-day

Question: And the NOAEL (Rattus norvegicus [5]; [9])?
Answer: 5 mg/kg-day

Question: What about the NOAEL (Rattus norvegicus [4]; subchronic, duration: 45 days, oral, diet, Liver: Altered weight + Liver: Enzyme induction) of the same compound?
Answer: 5 mg/kg-day

Question: `C1=CCC=C1` [1,3-Cyclopentadiene] was tested. Which NOEL (Rattus norvegicus [4]; chronic, duration: 194 days, inhalation, intermittent, Kidney: Lesions + Liver: Lesions) did it give?
Answer: 87.3 mg/kg-day

Question: `CCCCO` [1-Butanol] was tested. Which LOAEL (Rattus norvegicus [5]; [10]) did it give?
Answer: 500 mg/kg-day

Question: And the NOAEL (Rattus norvegicus [5]; [10])?
Answer: 125 mg/kg-day

Question: And the NOAEL (Rattus norvegicus [4]; subchronic, duration: 13 weeks, oral, gavage, Central nervous system: Ataxia + Central nervous system: Hypoactivity)?
Answer: 125 mg/kg-day

Question: How did the LOAEL (Rattus norvegicus [5]; [11]) turn out when `Oc1c(Cl)cc(Cl)c(Cl)c1Cl` [2,3,4,6-Tetrachlorophenol] was run?
Answer: 100 mg/kg-day

Question: And the NOAEL (Rattus norvegicus [5]; [11])?
Answer: 25 mg/kg-day

Question: What about the NOAEL (Rattus norvegicus [4]; subchronic, duration: 90 days, oral, gavage, Liver: Centrilobular hypertrophy + Liver: Increased weight) of the same compound?
Answer: 25 mg/kg-day

Question: Which NOEL (Rattus norvegicus [4]; subchronic, oral, diet, Stomach: Lesions) does the source give for `N#CSCSc1nc2ccccc2s1` [2-(Thiocyanomethylthio)benzothiazole] here?
Answer: 25 mg/kg-day

Question: How did the NOAEL (Rattus norvegicus [4]; chronic, duration: 24 months, inhalation, intermittent, Nasal cavity: Lesions) turn out when `O=C=Nc1ccc(Cc2ccc(N=C=O)cc2)cc1` [4,4'-Diphenylmethane diisocyanate] was run?
Answer: 0.2 mg/m3

Question: Which NOEL (Rattus norvegicus [6]; chronic, duration: 2 years, diet, M, Fischer 344, Carcinogenicity) does the source give for `COc1cc2c(c3oc(=O)c4c(c13)CCC4=O)[C@]1(O)C=CO[C@@H]1O2` [Aflatoxin M1] here?
Answer: 0.1 mg

Question: With `[O]=[Sb][O][Sb](=[O])=[O]` [Antimony oxide (Sb2O4)] as the compound, how does the LOAEL (Rattus norvegicus [4]; chronic, oral, drinking water, Blood: Altered chemistries + Whole body: Increased mortality) read?
Answer: 0.44 mg/kg-day

Question: For `FB(F)F` [Boron trifluoride], which NOAEL (Rattus norvegicus [4]; subchronic, duration: 13 weeks, inhalation, intermittent, Kidney: Necrosis) is on record?
Answer: 6 mg/m3

Question: For `O=C1C2CC=CCC2C(=O)N1SC(Cl)(Cl)Cl` (stereo not given) [Captan], which LEL (Rattus norvegicus [5]; [12]) is on record?
Answer: 25 mg/kg-day

Question: And the NOEL (Rattus norvegicus [5]; [12])?
Answer: 12.5 mg/kg-day

Question: What about the NOEL (Rattus norvegicus [4]; subchronic, oral, diet, Whole body: Decreased weight) of the same compound?
Answer: 12.5 mg/kg-day

Question: With `Cc1cc(C(C#N)c2ccc(Cl)cc2)c(Cl)cc1NC(=O)c1cc(I)cc(I)c1O` (stereo not given) [Closantel] as the compound, how does the NOEL (Rattus norvegicus [6]; chronic, duration: 2 years, diet, M/F, Wistar, Increased incidences of sperm granulomas in the epididymes of male rats) read?
Answer: 2.5 mg/kg-day

Question: What about the NOEL (Rattus norvegicus [6]; dietary / carcinogenicity, duration: 2 years, feed, M/F, Wistar, Increased incidences of sperm granulomas in the epididymes of male rats) of the same compound?
Answer: 2.5 mg/kg-day

Question: How did the LOAEL (Rattus norvegicus [5]; chronic, M, testicular damage) turn out when `NC1CCCCC1` [Cyclohexylamine] was run?
Answer: 60 mg/kg-day

Question: What about the NOAEL (Rattus norvegicus [5]; chronic, M, testicular damage) of the same compound?
Answer: 18 mg/kg-day

Question: What about the NOAEL (Rattus norvegicus [4]; subchronic, duration: 90 days, oral, diet, Testis: Decreased weight + Whole body: Decreased weight gain) of the same compound?
Answer: 30 mg/kg-day

Question: What does the source list for `CC(Cl)(Cl)C(=O)O` [Dalapon]?
Answer: LEL (Rattus norvegicus [5]; [13]): 28.2 mg/kg-day; NOEL (Rattus norvegicus [5]; [13]): 8.45 mg/kg-day; NOEL (Rattus norvegicus [4]; chronic, duration: 2 years, oral, diet, Kidney: Increased relative weight): 8.45 mg/kg-day

Question: `CCOP(=S)(OCC)Oc1cc(C)nc(C(C)C)n1` [Diazinon] was tested. Which NOAEL (Rattus norvegicus [3]; chronic, duration: 98 weeks, oral, diet, M/F, Sprague-Dawley, neurological) did it give?
Answer: 0.065 mg/kg-day

Question: And the NOAEL (Rattus norvegicus [3]; chronic, duration: 92 days, oral, diet, F, Wistar, neurological)?
Answer: 0.6 mg/kg-day

Question: And the NOAEL (Rattus norvegicus [3]; short-term, duration: 3 weeks, inhalation, nose only, M/F, albino, neurological)?
Answer: 1.57 mg/m3

Question: What about the NOAEL (Rattus norvegicus [4]; subchronic, duration: 42 days, oral, diet, Blood: Decreased cholinesterase activity) of the same compound?
Answer: 0.09 mg/kg-day

Question: Which results are given for `CCCN(CCC)C(=O)SCC` [EPTC]?
Answer: LEL (Rattus norvegicus [5]; [14]): 10 mg/kg-day; NOEL (Rattus norvegicus [5]; [14]): 2.5 mg/kg-day; NOEL (Rattus norvegicus [7]; Hershberger, duration: 10 days, oral, gavage, Sprague-Dawley, anti-androgenic + no effect on PPS, AST or thyroid / decreasing trend significant for LABC): 125 mg/kg-day; NOEL (Rattus norvegicus [4]; reproduction developmental, oral, diet, Heart: Degenerative cardiomyopathy): 2.5 mg/kg-day

Question: With `Oc1c(Cl)cc(Cl)c2cccnc12.Oc1c(Cl)ccc2cccnc12.Oc1ccc(Cl)c2cccnc12` [Halquinols] as the compound, how does the NOAEL (Rattus norvegicus [6]; chronic, duration: 1 years, Histopathological changes in the kidney) read?
Answer: 15 mg/kg-day

Question: Which results are given for `CCCN(CCC)c1c([N+](=O)[O-])cc(C(C)C)cc1[N+](=O)[O-]` [Isopropalin]?
Answer: LEL (Rattus norvegicus [5]; [15]): 72 mg/kg-day; NOEL (Rattus norvegicus [5]; [15]): 15 mg/kg-day; NOEL (Rattus norvegicus [4]; subchronic, duration: 90 days, oral, diet, Blood: Hematological effects + Organs, unspecified: Altered weights): 15 mg/kg-day

Question: How did the NOAEL (Rattus norvegicus [5]; chronic, drinking water, M/F, no effects) turn out when `C=C(C)C(=O)OC` [Methyl methacrylate] was run?
Answer: 136 mg/kg-day

Question: And the NOEL (Rattus norvegicus [4]; chronic, duration: 24 months, oral, drinking water, Kidney: Increased relative weight)?
Answer: 7.5 mg/kg-day

Question: `CCCCN(CC)C(=O)SCCC` [Pebulate] was tested. Which NOEL (Rattus norvegicus [4]; subchronic, oral, diet, Blood: Increased clotting time) did it give?
Answer: 5 mg/kg-day

Question: Which LOAEL (Rattus norvegicus [4]; chronic, duration: 25 weeks, oral, gavage, Liver: Increased weight + Liver: Lesions) does the source give for `Brc1cc(-c2ccc(Br)c(Br)c2Br)cc(Br)c1Br` [Polybrominated biphenyls (PBB)] here?
Answer: 0.07 mg/kg-day

Question: `CCCN(CC1CC1)c1c([N+](=O)[O-])cc(C(F)(F)F)cc1[N+](=O)[O-]` [Profluralin] was tested. Which NOEL (Rattus norvegicus [4]; subchronic, oral, diet, None Observed) did it give?
Answer: 3 mg/kg-day

Question: How did the LEL (Rattus norvegicus [5]; [16]) turn out when `CC(C)N(C(=O)CCl)c1ccccc1` [Propachlor] was run?
Answer: 133 mg/kg-day

Question: What about the NOEL (Rattus norvegicus [5]; [16]) of the same compound?
Answer: 13.3 mg/kg-day

Question: What about the NOEL (Rattus norvegicus [4]; subchronic, duration: 90 days, oral, diet, Whole body: Decreased weight gain) of the same compound?
Answer: 13.3 mg/kg-day

Question: Which results are given for `CN[C@@H]1[C@H](O[C@H]2[C@H](O[C@H]3[C@H](O)[C@@H](O)[C@H](N=C(N)N)[C@@H](O)[C@@H]3N=C(N)N)O[C@@H](C)[C@]2(O)C=O)O[C@@H](CO)[C@H](O)[C@H]1O` [Streptomycin A]?
Answer: LOEL (Rattus norvegicus [6]; [17]): 10 mg/kg-day; NOEL (Rattus norvegicus [6]; [17]): 5 mg/kg-day

Question: `[Sr]` [Strontium] was tested. Which LOAEL (Rattus norvegicus [5]; [18]) did it give?
Answer: 380 mg/kg-day

Question: And the NOAEL (Rattus norvegicus [5]; [18])?
Answer: 190 mg/kg-day

Question: And the NOAEL (Rattus norvegicus [3]; short-term, duration: 20 days, oral, diet, F, musculoskeletal)?
Answer: 140 mg/kg-day

Question: And the NOAEL (Rattus norvegicus [4]; short-term, duration: 20 days, oral, drinking water, Bone: Rachitic changes)?
Answer: 190 mg/kg-day

Question: Which LEL (Rattus norvegicus [7]; duration: 3 days, oral) does the source give for `Oc1cc(Cl)ccc1Oc1ccc(Cl)cc1Cl` [Triclosan] here?
Answer: 4.69 mg/kg-day and 7.5 mg/kg-day

Question: What about the LEL (Rattus norvegicus [7]; duration: 20 days, oral) of the same compound?
Answer: 150 mg/kg-day

Question: What about the NOEL (Rattus norvegicus [4]; short-term, duration: 4 weeks, oral, Whole body: Decreased weight) of the same compound?
Answer: 500 mg/kg-day

Question: `C=CC1(C)OC(=O)N(c2cc(Cl)cc(Cl)c2)C1=O` (stereo not given) [Vinclozolin] was tested. Which LEL (Canidae) did it give?
Answer: 7.5 mg/kg-day

Question: What about the NOEL (Canidae) of the same compound?
Answer: 2.5 mg/kg-day

Question: What about the NOEL (Rattus norvegicus [2]; subchronic, M/F, Sprague-Dawley, Body Weight Changes: decrease + Blood Chemistry: BUN increase, Cho increase, Glu increase, TSH increase, T4 decrease, , LH increase, , …) of the same compound?
Answer: < 3.12 mg/kg-day

Question: And the NOEL (Rattus norvegicus [7]; Hershberger, duration: 7 days, injection, subcutaneous, Wistar, Neither + significant delay in PPS and AST / epididymal wt reduced at 30 mg/kg / serum LH decreased at 10 mg/kg / increase in …)?
Answer: 30 mg/kg-day

Question: What about the NOEL (Rattus norvegicus [7]; Hershberger, duration: 10 days, oral, gavage, Wistar, active + Antiandrogenic + anti-androgenic + ISR significant delay in PPS at 10 mg/kg / Monossori et al. significant delay in PPS and AST…) of the same compound?
Answer: 30 mg/kg-day and 10 mg/kg-day

Question: What about the LOEL (Rattus norvegicus [7]; Hershberger, duration: 10 days, oral, gavage, wistar, active + Antiandrogenic + anti-androgenic + ISR significant delay in PPS at 10 mg/kg / Monossori et al. significant delay in PPS and AST…) of the same compound?
Answer: 10 mg/kg-day and 30 mg/kg-day

Question: For `[PH]=[Zn].[PH]=[Zn].[Zn]` [Zinc phosphide (Zn3P2)], which LOAEL (Rattus norvegicus [5]; subchronic, F, reduced food intake and body weight) is on record?
Answer: 3.48 mg/kg-day

Question: What about the LOAEL (Rattus norvegicus [4]; subchronic, duration: 13 weeks, oral, diet, Whole body: Decreased food intake + Whole body: Decreased weight) of the same compound?
Answer: 3.48 mg/kg-day

From EPA's ToxValDB 9.5
